Patent US12673945B2, “3-((8-((1H-pyrazol-4-yl)amino)imidazo[1,2-a]pyridin-3-yl)ethinyl)-n-phenylbenzamide derivative, method for preparing same, and pharmaceutical composition containing same as active ingredient for prevention or treatment of cancer” (DAEGU-GYEONGBUK MEDICAL INNOVATION FOUNDATION, priority 2020, dated 2026)

Experiments:
CDC2L5 = molecular target: T1, CDC2L5 (Homo sapiens, UniProt Q14004); assay: scanMAX Kinase panel (DiscoverX); assay type: binding
T1 construct: purchased DiscoverX scanMAX Kinase panel
Method: (§1) Among the example compounds of the present invention, the enzyme (kinase) selectivity of the selected compounds of Examples 1 and 4 was measured by requesting DiscoverX. At this time, the experiment was performed using a panel for scanMAX™ Kinase. The concentration of the drug treated to the enzyme was 1 μM in DMSO, and the percentage control (% control) was determined by the method shown in Equation 1 below. (Example Compound−Positive Control)/(Negative Control−Positive control)×100 [Equation 1]
In addition, if the enzyme selectivity of the compound of the present invention was less than the percentage control of 35% (<35%) for each enzyme, it was judged to have activity for the enzyme.

[1] = molecular target: T2, ABL1(F317I)-phosphorylated (Homo sapiens, UniProt P00519, F317I); assay: scanMAX Kinase panel (DiscoverX); assay type: binding; conditions: read-out: % Cont @ 1 uM
T2 construct: purchased DiscoverX
Method: as §1

BRAF(V600E) = molecular target: T3, BRAF(V600E) (Homo sapiens, UniProt P15056, V600E); assay: scanMAX Kinase panel (DiscoverX); assay type: binding; conditions: read-out: % Cont @ 1 uM
T3 construct: purchased DiscoverX scanMAX Kinase panel
Method: as §1

[2] = molecular target: T4, EGFR(L747-E749del, A750P) (Homo sapiens, UniProt P00533, A750P/DEL747-749); assay: scanMAX Kinase panel (DiscoverX); assay type: binding
T4 construct: purchased DiscoverX scanMAX Kinase panel
Method: as §1

EPHA3 = molecular target: T5, EPHA3 (Homo sapiens, UniProt P29320); assay: scanMAX Kinase panel (DiscoverX); assay type: binding; conditions: read-out: % Cont @ 1 uM
T5 construct: purchased DiscoverX scanMAX Kinase panel
Method: as §1

EPHA6 = molecular target: T6, EPHA6 (Homo sapiens, UniProt Q9UF33); assay: scanMAX Kinase panel (DiscoverX); assay type: binding; conditions: read-out: % Cont @ 1 uM
T6 construct: purchased DiscoverX scanMAX Kinase panel
Method: as §1

EPHB6 = molecular target: T7, EPHB6 (Homo sapiens, UniProt O15197); assay: scanMAX Kinase panel (DiscoverX); assay type: binding; conditions: read-out: % Cont @ 1 uM
T7 construct: purchased DiscoverX scanMAX Kinase panel
Method: as §1

FGFR3 = molecular target: T8, FGFR3 (Homo sapiens, UniProt P22607); assay: scanMAX Kinase panel (DiscoverX); assay type: binding; conditions: read-out: % Cont @ 1 uM
T8 construct: purchased DiscoverX scanMAX Kinase panel
Method: as §1

FLT3(D835Y) = molecular target: T9, FLT3(D835Y) (Homo sapiens, UniProt P36888, D835Y); assay: scanMAX Kinase panel (DiscoverX); assay type: binding; conditions: read-out: % Cont @ 1 uM
T9 construct: purchased DiscoverX scanMAX Kinase panel
Method: as §1

FLT3(ITD, F691L) = assay: scanMAX Kinase panel (DiscoverX); assay type: binding
Method: as §1

KIT(V559D, T670I) = molecular target: T10, KIT(V559D, T670I) (Homo sapiens, UniProt P10721, T670I/V559D); assay: scanMAX Kinase panel (DiscoverX); assay type: binding; conditions: read-out: % Cont @ 1 uM
T10 construct: purchased DiscoverX scanMAX Kinase panel
Method: as §1

LOK = molecular target: T11, LOK (Homo sapiens, UniProt O94804); assay: scanMAX Kinase panel (DiscoverX); assay type: binding
T11 construct: purchased DiscoverX scanMAX Kinase panel
Method: as §1

MAP4K4 = molecular target: T12, MAP4K4 (Homo sapiens, UniProt O95819); assay: scanMAX Kinase panel (DiscoverX); assay type: binding; conditions: read-out: % Cont @ 1 uM
T12 construct: purchased DiscoverX scanMAX Kinase panel
Method: as §1

PFTK1 = molecular target: T13, PFTK1 (Homo sapiens, UniProt O94921); assay: scanMAX Kinase panel (DiscoverX); assay type: binding
T13 construct: purchased DiscoverX scanMAX Kinase panel
Method: as §1

STK35 = molecular target: T14, STK35 (Homo sapiens, UniProt Q8TDR2); assay: scanMAX Kinase panel (DiscoverX); assay type: binding; conditions: read-out: % Cont @ 1 uM
T14 construct: purchased DiscoverX scanMAX Kinase panel
Method: as §1

p38-alpha = molecular target: T15, p38-alpha (Homo sapiens, UniProt Q16539); assay: scanMAX Kinase panel (DiscoverX); assay type: binding
T15 construct: purchased DiscoverX scanMAX Kinase panel
Method: as §1

KOPM28 cells = assay: human CML cell proliferation inhibition; assay type: cell-based; conditions: 72 hours, Cell Counting Kit-8
Summary of the method: (§2)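 Cell Counting Kit-8 read-out (450 nm, 2 h) after 72 h compound exposure at 37 °C gave GI50 relative to DMSO vehicle. Human CML lines: wild-type Bcr-Abl TCCS and KOPM28, plus T315I-TCCS and T315I-KOPM28; nine 5-fold dilutions, final 0-10 μM.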

T315I-KOPM28 cells = assay: human CML cell proliferation inhibition; assay type: cell-based; conditions: 72 hours, Cell Counting Kit-8
Summary of the method: as §2

T315I-TCCS cells = assay: human CML cell proliferation inhibition; assay type: cell-based; conditions: 72 hours, Cell Counting Kit-8
Summary of the method: as §2

TCCS cells = assay: human CML cell proliferation inhibition; assay type: cell-based; conditions: 72 hours, Cell Counting Kit-8
Summary of the method: as §2

[3] = oral pharmacokinetic test; assay type: in vivo, ICR mice; conditions: ICR, mouse, plasma, 10 mg/kg, 10 mg/Kg PO
Method: To evaluate the pharmacokinetic properties in vivo, oral pharmacokinetic test was performed with the compounds of Comparative Examples 1 and 4 and Examples 1 and 4 using mice and rats, and the PK parameters are shown in Table 10.
ICR mice (6-7 weeks old) and SD rats (6-7 weeks old) were used for the test. The fasted group was fasted about 16 hours before oral administration, and the fed group was fasted about 4 hours before oral administration. The test drug for oral administration was used by dissolving the drug in a vehicle at a concentration of 1 mg/mL for use, and blood samples were collected (time point: 0.25, 0.5, 1, 2, 4, 8, 12, 24, 32, n=3) from the heart (mouse, 500 μL/time point) or jugular vein (rat, 120 μL/time point). Blood was centrifuged at 12,000 G at 4° C. for 2 minutes to separate plasma, and stored at −80° C. until analysis. • Vehicle A (NMP:PEG400=5:95) • Vehicle B (0.5% methyl cellulose) 6-2. Sampling and Pretreatment
To 20 μl of plasma, 180 μl of acetonitrile (including internal standard) was added. The mixture was vortexed and centrifuged for 5 minutes at 15,000 rpm at 4° C. The supernatant obtained after centrifugation was analyzed by LC-MS/MS.
PK parameters were calculated with a non-compartmental analysis model using Phoenix WinNonlin 6.4 version (Pharsight, USA) program.

[4] = vehicle B (0.5% methyl cellulose)

T6 sequence (Q9UF33 23-1036): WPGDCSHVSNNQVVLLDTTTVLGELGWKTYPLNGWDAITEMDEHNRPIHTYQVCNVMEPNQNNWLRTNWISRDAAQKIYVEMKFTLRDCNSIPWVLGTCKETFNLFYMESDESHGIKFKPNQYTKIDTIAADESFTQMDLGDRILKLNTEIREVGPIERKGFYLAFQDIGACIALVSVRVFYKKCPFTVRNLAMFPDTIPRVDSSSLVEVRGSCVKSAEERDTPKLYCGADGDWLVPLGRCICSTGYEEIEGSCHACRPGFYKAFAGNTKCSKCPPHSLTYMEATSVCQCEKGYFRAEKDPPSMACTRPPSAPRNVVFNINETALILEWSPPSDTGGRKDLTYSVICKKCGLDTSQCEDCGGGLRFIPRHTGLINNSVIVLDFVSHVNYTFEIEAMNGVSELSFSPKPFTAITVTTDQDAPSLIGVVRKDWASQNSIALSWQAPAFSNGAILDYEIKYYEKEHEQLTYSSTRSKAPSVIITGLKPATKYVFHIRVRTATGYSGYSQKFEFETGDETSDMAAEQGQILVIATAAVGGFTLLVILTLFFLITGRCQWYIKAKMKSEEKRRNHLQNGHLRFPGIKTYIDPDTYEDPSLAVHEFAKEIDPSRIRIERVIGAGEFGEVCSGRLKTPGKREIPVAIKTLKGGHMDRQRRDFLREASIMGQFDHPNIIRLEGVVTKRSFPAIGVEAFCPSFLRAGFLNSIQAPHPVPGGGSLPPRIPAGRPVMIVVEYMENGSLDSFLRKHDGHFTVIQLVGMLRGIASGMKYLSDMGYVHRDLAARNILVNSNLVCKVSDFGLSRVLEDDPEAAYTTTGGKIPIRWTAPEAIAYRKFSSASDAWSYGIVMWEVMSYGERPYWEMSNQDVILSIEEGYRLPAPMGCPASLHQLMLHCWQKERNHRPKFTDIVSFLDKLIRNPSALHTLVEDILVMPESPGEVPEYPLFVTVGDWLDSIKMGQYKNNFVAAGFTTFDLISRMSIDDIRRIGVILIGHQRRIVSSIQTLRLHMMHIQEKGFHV
T14 sequence (Q8TDR2 whole entry): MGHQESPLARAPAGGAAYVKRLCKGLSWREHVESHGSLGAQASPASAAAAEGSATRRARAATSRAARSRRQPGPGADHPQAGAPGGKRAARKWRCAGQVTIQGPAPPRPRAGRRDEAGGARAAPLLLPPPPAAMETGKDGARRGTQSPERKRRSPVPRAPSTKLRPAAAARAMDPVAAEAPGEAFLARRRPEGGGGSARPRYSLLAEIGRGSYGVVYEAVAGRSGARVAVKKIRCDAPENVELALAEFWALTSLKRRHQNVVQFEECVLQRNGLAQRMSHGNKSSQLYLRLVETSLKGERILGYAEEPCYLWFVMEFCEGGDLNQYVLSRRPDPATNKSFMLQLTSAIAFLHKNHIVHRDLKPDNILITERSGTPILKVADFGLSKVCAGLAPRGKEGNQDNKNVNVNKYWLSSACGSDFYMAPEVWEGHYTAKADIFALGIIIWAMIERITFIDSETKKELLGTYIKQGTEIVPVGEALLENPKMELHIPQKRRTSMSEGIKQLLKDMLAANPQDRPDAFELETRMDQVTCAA
T12 sequence (O95819 whole entry): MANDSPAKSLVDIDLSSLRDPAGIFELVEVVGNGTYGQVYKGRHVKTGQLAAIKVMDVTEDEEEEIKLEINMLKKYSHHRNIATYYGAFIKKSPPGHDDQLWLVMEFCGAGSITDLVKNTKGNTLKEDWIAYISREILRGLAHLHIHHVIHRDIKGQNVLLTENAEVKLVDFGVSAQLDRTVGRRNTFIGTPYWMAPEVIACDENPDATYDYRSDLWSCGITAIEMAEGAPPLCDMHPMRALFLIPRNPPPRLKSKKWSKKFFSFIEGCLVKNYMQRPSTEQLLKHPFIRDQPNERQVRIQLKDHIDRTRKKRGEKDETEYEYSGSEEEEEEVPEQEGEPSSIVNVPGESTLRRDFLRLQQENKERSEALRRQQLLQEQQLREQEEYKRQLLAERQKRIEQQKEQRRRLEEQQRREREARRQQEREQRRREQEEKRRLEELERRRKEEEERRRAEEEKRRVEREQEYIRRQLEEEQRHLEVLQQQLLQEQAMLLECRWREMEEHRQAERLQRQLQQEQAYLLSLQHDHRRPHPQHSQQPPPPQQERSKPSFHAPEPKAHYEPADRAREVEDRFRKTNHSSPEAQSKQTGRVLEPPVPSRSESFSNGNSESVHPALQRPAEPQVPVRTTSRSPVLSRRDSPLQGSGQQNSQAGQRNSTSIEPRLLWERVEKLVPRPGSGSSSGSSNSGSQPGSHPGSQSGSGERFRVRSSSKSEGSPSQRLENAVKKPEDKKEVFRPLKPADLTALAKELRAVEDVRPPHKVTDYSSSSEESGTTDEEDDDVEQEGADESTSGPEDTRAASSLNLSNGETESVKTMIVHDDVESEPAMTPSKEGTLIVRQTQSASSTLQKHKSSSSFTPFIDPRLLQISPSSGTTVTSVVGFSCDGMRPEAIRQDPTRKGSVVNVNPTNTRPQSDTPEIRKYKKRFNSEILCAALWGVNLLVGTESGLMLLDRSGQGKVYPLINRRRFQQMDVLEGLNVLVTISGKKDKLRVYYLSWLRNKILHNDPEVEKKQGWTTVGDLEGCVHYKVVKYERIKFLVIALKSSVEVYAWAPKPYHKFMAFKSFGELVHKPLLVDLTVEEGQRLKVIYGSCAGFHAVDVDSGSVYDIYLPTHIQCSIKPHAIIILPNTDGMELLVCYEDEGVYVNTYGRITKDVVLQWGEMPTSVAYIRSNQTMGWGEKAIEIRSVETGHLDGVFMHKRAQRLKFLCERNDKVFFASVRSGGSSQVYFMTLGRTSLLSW
T5 sequence (P29320 21-983): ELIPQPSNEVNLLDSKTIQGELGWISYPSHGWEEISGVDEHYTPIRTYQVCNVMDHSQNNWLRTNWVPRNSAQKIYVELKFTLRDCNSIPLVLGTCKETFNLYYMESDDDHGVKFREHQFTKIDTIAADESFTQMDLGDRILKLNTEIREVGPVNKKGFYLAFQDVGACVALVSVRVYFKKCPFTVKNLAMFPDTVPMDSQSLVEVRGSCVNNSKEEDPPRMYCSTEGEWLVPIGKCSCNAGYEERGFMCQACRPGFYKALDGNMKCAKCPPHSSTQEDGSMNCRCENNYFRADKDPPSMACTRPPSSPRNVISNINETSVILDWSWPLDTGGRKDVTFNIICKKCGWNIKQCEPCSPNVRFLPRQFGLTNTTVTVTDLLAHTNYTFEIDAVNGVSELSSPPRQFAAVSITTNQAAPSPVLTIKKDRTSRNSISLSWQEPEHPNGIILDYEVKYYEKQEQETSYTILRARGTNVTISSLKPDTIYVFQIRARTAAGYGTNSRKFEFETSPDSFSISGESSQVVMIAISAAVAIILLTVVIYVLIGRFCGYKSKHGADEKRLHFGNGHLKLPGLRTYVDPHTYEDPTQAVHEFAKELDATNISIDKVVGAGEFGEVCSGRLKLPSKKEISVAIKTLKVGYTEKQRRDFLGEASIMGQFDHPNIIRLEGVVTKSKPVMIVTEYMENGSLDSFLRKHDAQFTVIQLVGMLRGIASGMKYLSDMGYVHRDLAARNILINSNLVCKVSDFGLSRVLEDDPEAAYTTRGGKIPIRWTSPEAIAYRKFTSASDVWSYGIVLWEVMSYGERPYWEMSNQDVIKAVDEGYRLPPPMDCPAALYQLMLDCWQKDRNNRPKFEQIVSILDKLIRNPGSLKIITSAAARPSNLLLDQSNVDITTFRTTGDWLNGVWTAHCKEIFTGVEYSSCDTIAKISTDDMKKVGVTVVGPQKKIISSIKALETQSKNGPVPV
T15 sequence (Q16539 whole entry): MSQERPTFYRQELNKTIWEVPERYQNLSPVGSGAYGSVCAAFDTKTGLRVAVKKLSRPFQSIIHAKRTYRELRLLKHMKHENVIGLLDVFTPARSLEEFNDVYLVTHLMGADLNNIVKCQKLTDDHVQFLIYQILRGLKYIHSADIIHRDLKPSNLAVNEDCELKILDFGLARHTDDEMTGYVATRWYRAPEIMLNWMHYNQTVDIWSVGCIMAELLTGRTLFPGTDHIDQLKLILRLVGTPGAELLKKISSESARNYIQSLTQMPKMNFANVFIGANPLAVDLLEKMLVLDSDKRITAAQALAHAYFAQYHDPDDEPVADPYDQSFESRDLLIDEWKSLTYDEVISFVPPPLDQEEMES
T3 sequence (P15056 whole entry V600E): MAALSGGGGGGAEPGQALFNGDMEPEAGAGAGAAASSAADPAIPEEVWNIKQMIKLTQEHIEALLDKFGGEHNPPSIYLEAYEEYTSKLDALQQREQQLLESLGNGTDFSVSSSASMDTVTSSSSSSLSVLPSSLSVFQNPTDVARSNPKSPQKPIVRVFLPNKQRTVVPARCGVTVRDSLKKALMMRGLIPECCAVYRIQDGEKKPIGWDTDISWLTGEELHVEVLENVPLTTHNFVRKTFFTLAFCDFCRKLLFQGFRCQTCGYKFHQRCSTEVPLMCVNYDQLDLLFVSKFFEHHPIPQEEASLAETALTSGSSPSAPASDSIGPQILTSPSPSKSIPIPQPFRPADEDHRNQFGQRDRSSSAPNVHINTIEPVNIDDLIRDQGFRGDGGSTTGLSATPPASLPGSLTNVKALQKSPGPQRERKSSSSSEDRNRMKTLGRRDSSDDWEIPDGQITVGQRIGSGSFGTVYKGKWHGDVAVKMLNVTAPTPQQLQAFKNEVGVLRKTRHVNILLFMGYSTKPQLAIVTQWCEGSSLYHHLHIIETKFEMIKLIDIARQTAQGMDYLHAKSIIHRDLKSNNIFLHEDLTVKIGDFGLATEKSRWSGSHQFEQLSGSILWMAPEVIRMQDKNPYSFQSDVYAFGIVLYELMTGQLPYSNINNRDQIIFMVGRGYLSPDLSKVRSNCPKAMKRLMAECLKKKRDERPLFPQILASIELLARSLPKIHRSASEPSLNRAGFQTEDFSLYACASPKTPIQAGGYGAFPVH

Row | SMILES | % Cont @ 1 uM (CDC2L5) | remaining binding at 1 µM [1] | remaining binding at 1 µM (BRAF(V600E)) | % Cont @ 1 uM [2] | remaining binding at 1 µM (EPHA3) | remaining binding at 1 µM (EPHA6) | remaining binding at 1 µM (EPHB6) | remaining binding at 1 µM (FGFR3) | remaining binding at 1 µM (FLT3(D835Y)) | % Cont @ 1 uM (FLT3(ITD, F691L)) | remaining binding at 1 µM (KIT(V559D, T670I)) | % Cont @ 1 uM (LOK) | remaining binding at 1 µM (MAP4K4) | % Cont @ 1 uM (PFTK1) | remaining binding at 1 µM (STK35) | % Cont @ 1 uM (p38-alpha) | GI50 (KOPM28 cells) | GI50 (T315I-KOPM28 cells) | GI50 (T315I-TCCS cells) | GI50 (TCCS cells) | further results
1 | Cc1cn(-c2cc(NC(=O)c3cc(C#Cc4cnc5c(Nc6cnn(C)c6)cccn45)c(C)cc3F)cc(C(C)(C)C#N)c2)cn1 [Example 1, N-(3-(2-cyanopropane-2-yl)-5-(4-methyl-1H-imidazol-1-yl)phenyl)-2-fluoro-4-methyl-5-((8-((1-methyl-1H-pyrazol-4-yl)amino)imidazo[1,2-a]pyridin-3-yl)ethynyl)benzamide] | 21% | 9.2% | 15% | 11% | 4% | 16% | 0% | 23% | 14% | 5.1% | 1.2% | 0.05% | 0.75% | 8.3% | 10% | 0.65% | < 10 nM | 100 nM | < 10 nM | < 10 nM | AUC(0-t) ([3]; vehicle A (NMP:PEG400=5:95)): 138000 ng·h/mL; Cmax ([3]; vehicle A (NMP:PEG400=5:95)): 8570 ng/mL; half-life ([3]; vehicle A (NMP:PEG400=5:95)): 2.5 h; AUC(0-t) [3, 4]: 80300 ng·h/mL; Cmax [3, 4]: 10000 ng/mL; half-life [3, 4]: 2.4 h
2 | Cc1cn(-c2cc(NC(=O)c3cc(C#Cc4cnc5c(Nc6cnn(C)c6)cccn45)c(C)cc3F)cc(C(F)(F)F)c2)cn1 [Example 4, 2-fluoro-4-methyl-N-(3-(4-methyl-1H-imidazol-1-yl)-5-(trifluoromethyl)phenyl)-5-((8-((1-methyl-1H-pyrazol-4-yl)amino)imidazo[1,2-a]pyridin-3-yl)ethynyl)benzamide] | 60% | 22% | 48% | 24% | 8.4% | 25% | 0% | 88% | 22% | 37% | 12% | 0.2% | 15% | 94% | 94% | 49% | 100 nM | 100 nM | 100 nM | < 10 nM | AUC(0-t) [3, 4]: 30400 ng·h/mL; Cmax [3, 4]: 3360 ng/mL; half-life [3, 4]: 2.1 h
